The values below come from publication PMC11729640, “Synthesis and evaluation of 6-arylaminobenzamides as positron emission tomography imaging ligands for the sphingosine-1-phosphate-5 receptor” (RSC Medicinal Chemistry, 2025).

One series addresses T1, S1P5 (Homo sapiens, UniProt Q9H228).
T1 construct: purchased Eurofins
The series can be described thus: [35S]GTPγS binding assay, agonist activity at S1P5. In kind it is biochemical. The note with it: for EC50: n = 3, errors in parentheses derived from 95% confidence intervals, nine concentrations 100 fM to 10 μM; for Efficacy (%): relative efficacy versus S1P against S1P5, single high concentration, single 96-well plate. As to the method:
The membrane preparation was diluted to […] with assay buffer and mixed 1 : 1 (v/v) with a 0.4 mg mL^-1 solution of saponin in assay buffer. […] MerckTM Multiscreen® HTS 96 well filter plates were pre-wet with 70% aqueous EtOH (50 μL per well) for 30 seconds and then washed twice with assay buffer (200 μL per well). […]

Another series concerns the target T2, S1P1 (Homo sapiens, UniProt P21453).
T2 construct: purchased Eurofins
The series can be described thus: [35S]GTPγS binding assay, agonist activity at S1P1. The series is classed as biochemical. The settings on record: n = 3, errors in parentheses derived from 95% confidence intervals. The method, then: (§1) A GTPγS assay was then conducted to evaluate receptor agonist activity of each compound at nine concentrations from 100 fM to 10 μM (n = 3).[24,25] Initially, all compounds were tested for agonist activity with S1P5 and relative efficacy versus S1P (Table 1).[26] […] Previous work by the Novartis group described the importance of hydrogen bonding between the carboxamide and 2-substituent, to maintain an in-plane conformation of the amide that was critical for agonist activity against S1P receptors.[16] […] This was more pronounced for compounds with both a bulky alkoxy group and a 3-substituent, with 6-arylaminobenzamide 7h found to have the weakest activity. […] Based on the binding studies and the physicochemical results, 6-arylaminobenzamide 7g, named as TEFM78 was chosen as the lead compound.
(§2) The assay buffer was prepared from HEPES (20 mM), NaCl (100 mM), MgCl2 (10 mM) and fatty acid-free BSA (0.1%) at pH 7.4. ChemiScreen™ S1P1–3,5 lysophospholipid receptor membrane preparations were obtained from Eurofins. The membrane preparation was diluted to […] with assay buffer and mixed 1 : 1 (v/v) with a 0.4 mg mL^−1 solution of saponin in assay buffer. Nine concentrations of the compounds to be tested were prepared (10 μM, 1 μM, 100 nM, 10 nM, 1 nM, 100 pM, 10 pM, 1 pM, 100 fM). Merck™ Multiscreen® HTS 96 well filter plates were pre-wet with 70% aqueous EtOH (50 μL per well) for 30 seconds and then washed twice with assay buffer (200 μL per well). To each well was added membrane preparation (25 μL), GDP in assay buffer (25 μL, 2 μM), [^35S]GTPγS in assay buffer (25 μL, 1.2 nM) and test compound (25 μL). For total binding, S1P solution in assay buffer (25 μL, 10 μM) was added and for basal, assay buffer (25 μL) was added. The assay plate was incubated at 30 °C for 0.5 h before the addition of cold assay buffer (100 μL per well) to stop the reaction. The plate was filtered using a Millipore vacuum manifold, with a pressure between 600–800 mbar and then dried at 50 °C for 1–2 h. Betaplate Scint scintillation cocktail (30 μL per well) was added and the disintegrations per minute were determined using a Wallac 1450 Microbeta Trilux liquid scintillation and luminescence counter. EC50 values were derived from non-linear regression analysis using GraphPad Prism Version 6 (GraphPad Software Inc).
In general terms: GTPγS is a poorly hydrolysed GTP analogue; its binding reports G protein activation.

A further series concerns the target T3, S1P2 (Homo sapiens, UniProt O95136).
T3 construct: purchased Eurofins
The series is described as follows: [35S]GTPγS binding assay, agonist activity at S1P2. The series is classed as biochemical. The settings on record: n = 3, errors in parentheses derived from 95% confidence intervals. As to the method:
as §1, §2

For a further series, the target named is T4, S1P3 (Homo sapiens, UniProt Q99500).
T4 construct: purchased Eurofins
The series can be described thus: [35S]GTPγS binding assay, agonist activity at S1P3. The series is classed as biochemical. The settings on record: n = 3, errors in parentheses derived from 95% confidence intervals. The method, then: as §1, §2

The target in series [1] is human serum albumin (HSA) (Homo sapiens, UniProt P02768). The series is described as follows: Plasma protein binding by human serum albumin (HSA) coated column. The series is classed as in vitro ADME. The note with it: read-out: %PPB (percentage of plasma protein binding). As to the method:
The physicochemical properties of both sets of compounds was initially performed to assess their potential as brain imaging agents. The calculated partition coefficient (log P), the permeability (Pm), the membrane partition coefficient (Km) and the percentage of plasma protein binding (%PPB) were determined for each compound using established methods (see ESI, ^† Table S1).[22,23] […] The permeability and membrane partition coefficient for the majority of compounds were well within the ideal limits for these parameters (Pm < 0.5; Km < 250), which are based on known CNS imaging agents.[23]
1. Physiochemical Propert ies of 6-arylaminobenz amides 7a–7h and 8a–8e.1
Compound log Pa Pmb Kmb %PPBc
aCalcul ated using Ch emDraw. bDeterm ined using i mmobil ised art ific ial membr ane (IAM) column .
cDetermin ed using human seru m albu min (HSA) coa ted colu mn.

T2 sequence (P21453 whole entry): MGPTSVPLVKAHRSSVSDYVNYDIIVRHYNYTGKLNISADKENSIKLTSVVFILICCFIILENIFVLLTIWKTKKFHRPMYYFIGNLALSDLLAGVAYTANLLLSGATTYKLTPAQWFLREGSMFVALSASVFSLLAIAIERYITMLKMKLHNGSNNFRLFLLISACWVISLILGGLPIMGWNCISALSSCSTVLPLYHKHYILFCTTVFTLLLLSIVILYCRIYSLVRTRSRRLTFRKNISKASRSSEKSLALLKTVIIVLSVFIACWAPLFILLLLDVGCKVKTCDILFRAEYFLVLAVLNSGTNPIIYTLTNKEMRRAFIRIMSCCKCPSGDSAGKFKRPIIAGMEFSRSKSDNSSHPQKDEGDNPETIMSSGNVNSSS
Chain of human serum albumin (HSA) (P02768 25-609): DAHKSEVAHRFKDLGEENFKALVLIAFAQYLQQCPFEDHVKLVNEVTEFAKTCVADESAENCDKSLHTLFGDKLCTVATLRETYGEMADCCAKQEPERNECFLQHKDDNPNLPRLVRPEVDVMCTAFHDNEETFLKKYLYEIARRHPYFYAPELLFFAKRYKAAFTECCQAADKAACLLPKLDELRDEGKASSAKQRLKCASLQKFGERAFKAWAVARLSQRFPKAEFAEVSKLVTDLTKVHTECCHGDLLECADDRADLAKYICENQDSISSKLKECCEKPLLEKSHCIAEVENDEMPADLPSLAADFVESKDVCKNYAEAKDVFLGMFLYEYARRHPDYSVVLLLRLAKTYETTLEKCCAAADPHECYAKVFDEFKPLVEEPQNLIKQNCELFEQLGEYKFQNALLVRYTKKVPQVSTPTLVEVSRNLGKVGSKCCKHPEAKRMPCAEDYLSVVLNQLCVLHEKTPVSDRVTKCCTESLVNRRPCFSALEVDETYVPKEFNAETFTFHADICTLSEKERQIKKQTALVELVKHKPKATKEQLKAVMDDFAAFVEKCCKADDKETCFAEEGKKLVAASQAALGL
T4 sequence (Q99500 whole entry): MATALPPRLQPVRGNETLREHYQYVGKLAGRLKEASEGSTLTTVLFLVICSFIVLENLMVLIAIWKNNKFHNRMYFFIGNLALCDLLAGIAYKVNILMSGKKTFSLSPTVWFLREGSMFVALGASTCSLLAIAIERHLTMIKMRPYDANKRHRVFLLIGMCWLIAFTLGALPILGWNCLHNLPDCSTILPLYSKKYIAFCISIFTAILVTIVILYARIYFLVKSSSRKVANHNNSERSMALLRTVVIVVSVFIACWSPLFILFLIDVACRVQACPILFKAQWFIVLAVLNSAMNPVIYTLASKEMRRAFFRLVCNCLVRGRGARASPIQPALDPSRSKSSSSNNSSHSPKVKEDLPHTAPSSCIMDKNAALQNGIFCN
T1 sequence (Q9H228 whole entry): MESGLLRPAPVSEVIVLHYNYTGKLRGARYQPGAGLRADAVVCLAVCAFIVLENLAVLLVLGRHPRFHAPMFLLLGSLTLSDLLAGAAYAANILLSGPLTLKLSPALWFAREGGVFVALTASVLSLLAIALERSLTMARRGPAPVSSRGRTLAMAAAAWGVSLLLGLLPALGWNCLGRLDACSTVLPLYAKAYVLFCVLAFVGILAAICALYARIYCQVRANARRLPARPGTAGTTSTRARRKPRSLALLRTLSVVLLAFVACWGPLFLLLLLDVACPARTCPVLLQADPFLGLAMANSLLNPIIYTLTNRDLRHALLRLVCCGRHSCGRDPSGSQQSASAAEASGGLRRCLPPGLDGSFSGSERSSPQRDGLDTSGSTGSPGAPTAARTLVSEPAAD
T3 sequence (O95136 whole entry): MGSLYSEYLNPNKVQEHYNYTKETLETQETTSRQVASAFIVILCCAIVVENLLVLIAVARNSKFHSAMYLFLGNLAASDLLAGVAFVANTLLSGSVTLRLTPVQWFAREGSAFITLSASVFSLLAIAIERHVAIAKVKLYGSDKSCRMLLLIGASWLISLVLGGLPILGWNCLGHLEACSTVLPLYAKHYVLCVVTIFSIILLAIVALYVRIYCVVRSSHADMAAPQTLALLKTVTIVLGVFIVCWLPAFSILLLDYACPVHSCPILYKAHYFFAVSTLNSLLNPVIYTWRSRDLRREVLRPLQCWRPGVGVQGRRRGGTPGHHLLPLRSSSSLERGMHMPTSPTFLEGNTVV

In general, EC50 refers to the concentration giving half of the maximal effect. Turning to `COc1c(-c2ccc(F)cc2)ccc(Nc2c(C)cc(C)cc2C)c1C(N)=O` [Compound 8a, 3-(4′′-Fluorophenyl)-6-(mesitylamino)-2-methoxybenzamide], at S1P5, the EC50 came to 72.3 nM and the “Efficacy (%)” value came to 129%.
Regarding `COc1ccc(-c2ccc(Nc3c(C)cc(C)cc3C)c(C(N)=O)c2OC)c(F)c1` [Compound 8c, 3-(2′′-Fluoro-4′′-methoxyphenyl)-6-(mesitylamino)-2-methoxybenzamide], the EC50 is 29.8 nM at S1P5, 76 nM at S1P1, > 10000 nM at S1P2 and > 10000 nM on S1P3. Further, at S1P5, the “Efficacy (%)” value was 120%.
Consider `Cc1cc(F)cc(C)c1Nc1ccc(C)c(OCC(C)C)c1C(N)=O` [Compound 7h, 6-[(4′-Fluoro-2′,6′-dimethylphenyl)amino]-2-isobutoxy-3-methylbenzamide], for which, on S1P5, the EC50 was 2240 nM and the “Efficacy (%)” value came to 154%.
On to `COc1cccc(Nc2c(C)cc(F)cc2C)c1C(N)=O` [Compound 7b, 6-[(4′-Fluoro-2′,6′-dimethylphenyl)amino]-2-methoxybenzamide], for which the EC50 at S1P5 is 39.8 nM; at S1P1, > 10000 nM; on S1P2, > 10000 nM; at S1P3, > 10000 nM. Further, the “Efficacy (%)” value on S1P5 was 108%. Moreover, the fraction unbound in series [1] came to 0.01.
For `COc1c(C)ccc(Nc2c(C)cc(F)cc2C)c1C(N)=O` [Compound 7g, 6-[(4′-Fluoro-2′,6′-dimethylphenyl)amino]-2-methoxy-3-methylbenzamide], the EC50 at S1P5 was 22.3 nM; on S1P1, 104 nM; at S1P2, > 10000 nM; at S1P3, 2030 nM. For the same compound, the “Efficacy (%)” value at S1P5 was 183%. For the same compound, in series [1], the fraction unbound is 0.01.
As to `COc1c(-c2cccnc2F)ccc(Nc2c(C)cc(C)cc2C)c1C(N)=O` [Compound 8e, 3-(2′′-Fluoropyridin-3′′-yl)-6-(mesitylamino)-2-methoxybenzamide], the EC50 was 23.4 nM on S1P5, 0.336 nM on S1P1, > 10000 nM at S1P2 and 172 nM on S1P3. Besides, the “Efficacy (%)” value at S1P5 is recorded as 175%. Also, the fraction unbound in series [1] turned out to be 0.01.
For the compound `COc1ccc(F)c(-c2ccc(Nc3c(C)cc(C)cc3C)c(C(N)=O)c2OC)c1` [Compound 8d, 3-(2′′-Fluoro-5′′-methoxyphenyl)-6-(mesitylamino)-2-methoxybenzamide], on S1P5, the 50% effective concentration (EC50) was determined as 612 nM and the “Efficacy (%)” value was 142%.
For the compound `CCCCCCCCCCCCC/C=C/[C@@H](O)[C@@H](N)COP(=O)(O)O` [S1P (1), sphingosine-1-phosphate], on S1P5, the “Efficacy (%)” value stood at 100%. The half-maximal effective concentration (EC50) at S1P3 came out at 42.6 nM.
Take `C=CCOc1cccc(Nc2c(C)cc(F)cc2C)c1C(N)=O` [Compound 7f, 2-(Allyloxy)-6-[(4′-fluoro-2′,6′-dimethylphenyl)amino]benzamide]: the 50% effective concentration (EC50) was 6.66 nM at S1P5, 25.6 nM on S1P1, > 10000 nM on S1P2 and 27.6 nM at S1P3. The “Efficacy (%)” value on S1P5 was 164%.
Regarding `Cc1cc(F)cc(C)c1Nc1cccc(OCC(C)C)c1C(N)=O` [Compound 7c, 6-[(4′-Fluoro-2′,6′-dimethylphenyl)amino]-2-isobutoxybenzamide], on S1P5, the EC50 is 180 nM and the “Efficacy (%)” value is 137%.
With `Cc1cc(F)cc(C)c1Nc1cccc(OC(C)C)c1C(N)=O` [Compound 7a, 6-[(4′-Fluoro-2′,6′-dimethylphenyl)amino]-2-isopropoxybenzamide], at S1P5, the EC50 turned out to be 419 nM and the “Efficacy (%)” value is listed as 105%. In addition, the fraction unbound in series [1] came to 0.01.
Take `Cc1cc(F)cc(C)c1Nc1cccc(OCCC(C)C)c1C(N)=O` [Compound 7e, 6-[(4′-Fluoro-2′,6′-dimethylphenyl)amino]-2-(3′′-methyl-n-butoxy)benzamide]: at S1P5, the EC50 was determined as 49 nM and the “Efficacy (%)” value is 102%.
The like results for `COc1c(-c2ccccc2F)ccc(Nc2c(C)cc(C)cc2C)c1C(N)=O` [Compound 8b, 3-(2′′-Fluorophenyl)-6-(mesitylamino)-2-methoxybenzamide] were, in that order, 954 nM and 136%.
Taken in the same sequence, the figures for `CCCCOc1cccc(Nc2c(C)cc(F)cc2C)c1C(N)=O` [Compound 7d, 2-n-Butoxy-6-[(4′-fluoro-2′,6′-dimethylphenyl)amino]benzamide] were 234 nM and 140%.
